Measurements: BindingDB's records for patent US20250019381 (Cardurion Pharmaceuticals, 2025)

Molecular target: Dual specificity calcium/calmodulin-dependent 3',5'-cyclic nucleotide phosphodiesterase 1A (Human, UniProt P54750)
Test: Enzyme immunoassay

Dual specificity calcium/calmodulin-dependent 3',5'-cyclic nucleotide phosphodiesterase 1A, sequence (P54750 whole entry): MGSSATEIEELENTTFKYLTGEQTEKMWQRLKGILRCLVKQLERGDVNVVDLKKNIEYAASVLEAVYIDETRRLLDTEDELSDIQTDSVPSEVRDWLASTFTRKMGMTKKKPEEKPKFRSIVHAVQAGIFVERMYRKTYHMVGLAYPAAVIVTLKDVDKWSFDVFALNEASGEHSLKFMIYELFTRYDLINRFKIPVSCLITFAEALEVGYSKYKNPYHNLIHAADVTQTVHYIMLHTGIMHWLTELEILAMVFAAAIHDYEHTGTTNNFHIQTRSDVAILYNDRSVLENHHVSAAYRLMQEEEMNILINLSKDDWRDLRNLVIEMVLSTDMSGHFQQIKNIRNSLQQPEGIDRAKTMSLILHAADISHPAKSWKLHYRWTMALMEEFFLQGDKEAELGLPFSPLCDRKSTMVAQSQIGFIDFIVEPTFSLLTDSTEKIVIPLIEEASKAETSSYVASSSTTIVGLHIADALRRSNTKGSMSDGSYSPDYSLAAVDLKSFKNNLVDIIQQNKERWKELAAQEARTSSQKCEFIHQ

O=c1[nH]c(CN2CC(Oc3cccnc3)C2)cn2c(C3CCOCC3)ncc12 [US20250019381, Compound (P2)]
IC50: 5.28 µM
